From PubChem BioAssay AID602191 (Broad Institute, 2012) come the findings set out here.

In this assay the target is Scavenger receptor class B member 1 (Mus musculus) (UniProt Q61009). The experiment in a line: activators of SR-BI-mediated HDL uptake, dose response, cell-based, ldlA[mSR-BI] CHO, DiI fluorescence, cherry-pick (AID 602191).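 For AC40: potency of activators raising HDL uptake.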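 For activation (HDL uptake increase): 0% = median of DMSO wells and 100% = twice the DMSO signal.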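 For all read-outs here: cell fluorescence from internalized DiI-labeled HDL after washing.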 To be noted: ldlA[mSR-BI] CHO cells, 3 h; for activation (HDL uptake increase): at 35 µM (top of the series).
Sequence of Scavenger receptor class B member 1 (Mus musculus) (Q61009 whole entry, looked up): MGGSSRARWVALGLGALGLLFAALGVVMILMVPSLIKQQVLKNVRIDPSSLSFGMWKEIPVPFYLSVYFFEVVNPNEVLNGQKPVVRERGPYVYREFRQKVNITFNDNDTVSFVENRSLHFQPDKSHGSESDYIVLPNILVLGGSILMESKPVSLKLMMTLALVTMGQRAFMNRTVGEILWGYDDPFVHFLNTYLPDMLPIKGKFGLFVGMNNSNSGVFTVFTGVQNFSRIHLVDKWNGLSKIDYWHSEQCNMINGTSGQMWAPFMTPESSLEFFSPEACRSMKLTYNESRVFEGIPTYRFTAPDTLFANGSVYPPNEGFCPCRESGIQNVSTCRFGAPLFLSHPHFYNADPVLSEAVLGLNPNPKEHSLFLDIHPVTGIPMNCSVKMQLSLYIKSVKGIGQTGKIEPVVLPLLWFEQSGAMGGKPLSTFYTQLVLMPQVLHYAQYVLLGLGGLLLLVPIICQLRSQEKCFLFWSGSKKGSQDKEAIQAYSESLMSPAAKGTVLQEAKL

SMILES strings stand for the structures. The source made the active and inactive calls.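 Rule for the calls: active = fitted curve reaches 40% activation at a concentration no higher than the top valid tested dose; inconclusive = flat fit between 30% and 70% activation, or poor fit; inactive = uptake decrease, flat fit within 30% of zero, the rest.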

With `CCc1ccccc1NC(=O)CN1CCC(NC(=O)COC)CC1`, the activation (HDL uptake increase) was -1.48% (inactive).
With `O=C(CC(c1ccccc1)c1ccco1)Nc1nccs1` (centres undefined), the activation (HDL uptake increase) is 4.67% (inactive).
On the same count and under the same terms, for `CCOC(=O)C1CCCN(C(=S)Nc2cccc(Cl)c2C)C1` (centres undefined) the value was -3.98% (inactive); for `O=C(COC(=O)c1ccc[nH]c1=O)Nc1cc(S(=O)(=O)N2CCCCCC2)ccc1Cl`, -9.61% (inactive).
Still for that read-out and setting: for `CN(C(=O)c1ccccc1Cl)c1ccccc1C(=O)NCc1ccccc1` the value was -10.9% (inactive).
On to `COc1ccc(C(=O)NCc2nnc(SCC(=O)NCc3ccc(F)cc3)o2)cc1`, for which the activation (HDL uptake increase) is -16% (inactive).
Regarding `Cc1c(CC(=O)O)c(=O)oc2cc(OCc3ccc(F)cc3Cl)ccc12`, the activation (HDL uptake increase) was 10.2% (inactive).
As for `COc1ccccc1C(=O)NCC(=O)NCc1cc(=O)n(C)c(=O)n1C`, the activation (HDL uptake increase) was -3.18% (inactive).
For the molecule `COc1ccc(CCNC(=S)N2CCN(S(=O)(=O)c3ccc(Cl)cc3)CC2)cc1`, the activation (HDL uptake increase) was 5.66% (inactive).
For `O=C(CCN1C(=O)/C(=C\C=C\c2ccccc2)SC1=S)Nc1ccc(C(=O)O)cc1`, the activation (HDL uptake increase) is -14.1% (inactive).
On to `Cc1ccc(NC(=O)c2nc[nH]c2C(=O)NCCN(CCNC(=O)c2[nH]cnc2C(=O)Nc2ccc(C)cc2)CCNC(=O)c2[nH]cnc2C(=O)Nc2ccc(C)cc2)cc1`, for which the activation (HDL uptake increase) was 8.14% (inactive).
In the case of `COc1cccc(CN2CCNC(=O)C2CC(=O)NCCCn2ccnc2)c1` (centres undefined), the activation (HDL uptake increase) is 13% (inactive).
Turning to `COc1ccc(NC(=O)CN(C)C(=O)CCC2CCCC2)cc1`, the activation (HDL uptake increase) is -6.8% (inactive).
In the case of `CCc1nnc(NC(=O)c2nc(S(=O)(=O)Cc3ccc(C)cc3)ncc2Cl)s1`, the activation (HDL uptake increase) is -22.7% (inactive).
In the case of `COc1ccc(NC(=O)C(NC(=O)Cc2cccs2)c2ccc(C)cc2)cc1` (centres undefined), the activation (HDL uptake increase) is 2.03% (inactive).
In the case of `COC(=O)[C@@H]1C[C@@]2(O)[C@H](O)[C@H](O)[C@H](O)C[C@H]2N1Cc1cccc2ccccc12`, the activation (HDL uptake increase) is 8.8% (inactive).
Take `Cc1ccc(N(C)C(=O)CN(C)S(=O)(=O)c2ccc3c(c2)n(C)c(=O)c(=O)n3C)cc1`: the activation (HDL uptake increase) is 8.76% (inactive).
Same read-out and setting: for `CC(C)CC(=O)c1c(O)c(C=O)c(O)c2c1O[C@@]1(C)[C@@H](C2)C[C@H]2C[C@@H]1C2(C)C` the value was -25.2% (inactive); for `COC(=O)C(Cc1ccc(O)cc1)NC(=O)C1CCN(S(=O)(=O)c2ccc(C)cc2)CC1` (centres undefined), -2.45% (inactive).
On to `CCCCn1c(=N)n(CCOc2ccc(C)cc2)c2ccccc21`, for which the activation (HDL uptake increase) was -6.96% (inactive).
`O=C(c1ccc(CS(=O)Cc2ccccc2Cl)o1)N1CCN(c2ccccn2)CC1` (centres undefined): the activation (HDL uptake increase) is -16.3% (inactive).
With `COC(=O)[C@@]12CCCCN1[C@H](c1ccc(-c3ccc(C(C)=O)cc3)c(OC)c1)[C@@H]1C(=O)N(C)C(=O)[C@@H]12`, the activation (HDL uptake increase) was -14% (inactive).
Regarding `CCN1C(=O)C2C(c3cccc(F)c3)NC(CC)(C(=O)OC)C2C1=O` (centres undefined), the activation (HDL uptake increase) was -4.79% (inactive).
Turning to `CCCNC(=O)c1onc(CSc2ccc(F)cc2)c1C(=O)NCCOC`, the activation (HDL uptake increase) is -11.4% (inactive).
For `COC(=O)c1ccc([C@@H](O)[C@H](C)C(=O)CC(=O)OC(C)(C)C)cc1`, the activation (HDL uptake increase) was 4.09% (inactive).
On the same count and under the same terms, the result for `COc1ccc(NC(=O)N(C)C[C@H]2Oc3c(NC(=O)c4ccncc4)cccc3C(=O)N([C@H](C)CO)C[C@@H]2C)cc1` reads -11.2% (inactive).
Still for that read-out and setting: for `O=C1N[C@@H](c2ccccc2)COC(=O)[C@H](Cc2ccc(F)cc2)CC/C=C/C[C@H]1CC(=O)N(CCO)Cc1ccccc1` the value was -5.36% (inactive); for `COCCCNC(=O)C1CCC(CNS(=O)(=O)c2ccc3c(c2)N(C(C)=O)CCO3)CC1` (centres undefined), 7.18% (inactive).
Take `Cc1ccc(C(=O)NCCc2cccs2)cc1`: the activation (HDL uptake increase) was 1.64% (inactive).
Consider `CCOc1ccc(CN2CCNC(=O)C2CC(=O)NCC2CCOCC2)cc1` (centres undefined), for which the AC40 was > 35 µM (inactive).
As for `O=C(CCc1nc2ccccc2c(=O)[nH]1)N1CCN(c2ccccc2Cl)CC1`, the activation (HDL uptake increase) is -8.18% (inactive).
With `CN(C)CCN(C(=O)CN1C(=O)c2ccccc2C1=O)c1nc2cc3c(cc2s1)OCCO3`, the activation (HDL uptake increase) was -2.04% (inactive).
Take `CC1CCCC(NC(=O)COC(=O)c2ccc3ccccc3n2)C1C` (centres undefined): the activation (HDL uptake increase) is -7.88% (inactive).
Consider `CN(C)c1nc(C#N)nc(N2CCOCC2)n1`, for which the activation (HDL uptake increase) was 4.22% (inactive).
Consider `Cc1cccc(C)c1NC(=O)N1C2CCCC1CC(NC(=O)C(C)(C)C)C2` (centres undefined), for which the activation (HDL uptake increase) is 5.39% (inactive).
Same read-out and setting: for `CN(C)S(=O)(=O)c1ccc(N2CCCC2)c(C(=O)NC2CCC(O)CC2)c1` (centres undefined) the value was -3.29% (inactive); for `Cc1c(C(=O)NCCN2CCOC2=O)oc2c(F)cccc12`, -0.811% (inactive); for `Cc1cccc(NC(=O)CN2CCN(C(=O)C3CCCO3)CC2)c1C` (centres undefined), -0.486% (inactive).
Regarding `CC(C)Cc1cc(C(=O)NCc2ccco2)no1`, the activation (HDL uptake increase) was -10.4% (inactive).
As for `O=C(C[C@H]1C[C@H](C(=O)N2CCCCC2)[C@@]2(CCc3ccccc3)c3[nH]c4ccc(Cl)cc4c3CCN2C1=O)NCc1cccc(C(F)(F)F)c1`, the AC40 was > 35 µM (inactive).
As for `COc1ccc2sc(-c3ccccc3OC)c(-c3ccc(OCCN4CCCC4)cc3)c2c1`, the AC40 was > 35 µM (inactive).
With `O=C(NCc1ccccn1)c1ccc(S(=O)(=O)Nc2ccccc2F)cc1`, the activation (HDL uptake increase) was 0.427% (inactive).
Turning to `COc1ccc(N(CC(=O)NCCSc2ccccn2)S(=O)(=O)c2ccc(C)cc2)cc1OC`, the activation (HDL uptake increase) was -0.821% (inactive).
With `Clc1ccc2nc(CN3CCCCCC3)cn2c1`, the activation (HDL uptake increase) is 0.923% (inactive).
Turning to `Nc1nc(SCC(=O)OCc2ccccc2)[nH]c(=O)c1NC(=O)c1ccco1`, the activation (HDL uptake increase) is 4.16% (inactive).
For the molecule `Cc1ccc(N2C(=O)C(Cc3ccc(O)cc3)NC2=S)cc1C` (centres undefined), the activation (HDL uptake increase) was -11.4% (inactive).
With `C=CCOC(=O)C1=C[C@H](c2ccc(C(F)(F)F)cc2)C[C@H](OCCCCO)O1`, the activation (HDL uptake increase) was -10.3% (inactive).
As to `COc1ccc(Oc2nc(Oc3ccc(OC)cc3)nc(Oc3ccc(OC)cc3)n2)cc1`, the activation (HDL uptake increase) was -9.22% (inactive).
In the case of `CCCCn1c(N)c(N(CCOC)C(=O)C2CC(=O)N(Cc3ccco3)C2)c(=O)[nH]c1=O` (centres undefined), the activation (HDL uptake increase) is 0.156% (inactive).
Regarding `O=C(CN1CCN(S(=O)(=O)c2ccc(F)cc2)CC1)Nc1ccc(F)cc1F`, the activation (HDL uptake increase) is 5.31% (inactive).
`COc1ccc(NC(=O)C(Sc2nnc3ccccn23)c2ccccc2)cc1Cl` (centres undefined): the activation (HDL uptake increase) was -16.3% (inactive).
For `CC(C)C(NC(=O)c1ccccc1F)C(=O)NCc1ccccc1` (centres undefined), the activation (HDL uptake increase) is 4.3% (inactive).
With `O=S(=O)(Nc1ccccc1OC(F)F)c1ccc(S(=O)(=O)N2CCCC2)cc1`, the activation (HDL uptake increase) is -11.8% (inactive).
For the molecule `CCOC(=O)N1CCC(NC(=S)Nc2ccc3nc(N4CCN(C)CC4)cc(C)c3c2)CC1`, the activation (HDL uptake increase) was -25.6% (inactive).
For `Cc1ccc(CS(=O)Cc2ccc(C(=O)NCc3ccccc3)o2)cc1` (centres undefined), the activation (HDL uptake increase) was 4.99% (inactive).
Regarding `COc1ccc(OC)c(NC(=O)c2c(NC(=O)CCC(=O)O)sc3c2CCCCC3)c1`, the activation (HDL uptake increase) was -20.2% (inactive).
The same measure, in the same setting: the result for `CC(C)CN(C(=O)CCNC(=O)c1ccccc1Cl)C1CCS(=O)(=O)C1` (centres undefined) reads 0.946% (inactive); that for `Cc1cc(C)nc(Nc2ncc(O)n2-c2ccccc2)n1`, -7.64% (inactive); that for `Cc1ccc(S(=O)(=O)N(CCC(=O)NCC(c2ccccc2)N(C)C)c2ccccc2)cc1` (centres undefined), -5.72% (inactive).
Take `O=C(NCCCCc1ccccc1)C1CC(c2cccc(F)c2)=NO1` (centres undefined): the activation (HDL uptake increase) was -4.48% (inactive).
Regarding `CN1CCN(C(=O)c2ccccc2NC(=O)c2ccccc2Br)CC1`, the activation (HDL uptake increase) was -7.48% (inactive).
On the same count and under the same terms, for `CCOc1ccc(S(=O)(=O)N2CCN=C2c2ccccc2)c(C)c1C` the value was -9.83% (inactive); for `Cc1nc(C2CCCCC2)c(-c2ccccc2)c(N2CCOC2=O)c1C`, 1.15% (inactive).
In the case of `NCCCC[C@H]1CNC(=O)C(=O)N1CCc1cccc(F)c1`, the AC40 was > 35 µM (inactive).
As for `CC(C)(C)OC(=O)C[C@H]1C/C=C\C[C@H](CC(=O)NCCO)C(=O)NCCOC1=O`, the activation (HDL uptake increase) is -2.75% (inactive).
Consider `Cc1cccc(NC(=O)CCC(=O)OCc2ccc(Br)cc2)c1`, for which the activation (HDL uptake increase) is -7.9% (inactive).
Consider `CN(C)C(=O)CCc1ccc2c3c([nH]c2c1)[C@]1(CCC2CCCC2)[C@@H](C(=O)N2CCOCC2)C[C@H](CC(=O)NCC24CC5CC(CC(C5)C2)C4)C(=O)N1CC3`, for which the AC40 was > 35 µM (inactive).
For the molecule `Cc1cc(NC(=O)CN2C(=O)NC(C)(c3ccc(OC(F)F)cc3)C2=O)no1` (centres undefined), the activation (HDL uptake increase) was -7.97% (inactive).
With `COc1ccc(NC(=O)COC(=O)c2cc(SC)ccc2Cl)c(OC)c1`, the activation (HDL uptake increase) was -14.1% (inactive).
As to `CCC(=O)Nc1ccc(C(=O)NNC(=O)c2cccs2)cc1`, the activation (HDL uptake increase) was -6.45% (inactive).
For `CCOC(=O)N1CCC(N2C(=O)c3ccccc3C2Nc2cc(OC)c(OC)c(OC)c2)CC1` (centres undefined), the activation (HDL uptake increase) was 13% (inactive).
Consider `CCC[C@@H](CNC)NC[C@H](Cc1ccccc1)NCCCCc1ccccc1`, for which the activation (HDL uptake increase) was -3.49% (inactive).
For the molecule `O=C(CCNC(=O)c1ccccc1Cl)NN1C(=O)NC2(CCCCC2)C1=O`, the activation (HDL uptake increase) was -10.8% (inactive).
As for `O=C(COC(=O)c1ccco1)c1ccc(S(=O)(=O)N2CCCCC2)cc1`, the activation (HDL uptake increase) is -16.4% (inactive).
